Experimental data published in patent publication US12233129B2, “Methods and compositions for the treatment of cancer” (priority 2019, dated 2025).
Entries after “also recorded” stand apart in the source; their conditions may differ.

Experiments:
Assay type in all cases: cell-based, human
[1] = test system: HCT-116; assay: Cell detachment assay and live cell imaging; conditions: dose- and time-dependent
Description: (§1) Based on the above results, we then hypothesized that VTD-induced UBXN2A leads to apoptosis and cell death mimicking the Tet-on induced-UBXN2A model (FIG. 15). As cell detachment and cell shrinking are ubiquitous aspects of apoptosis, we examined these features in four cancer cell lines: HCT116 (WT-p53), LoVo (WT-p53), SW-480 (mutant-p53), and U2OS (WT-p53), all in the presence of VTD (FIG. 17, S4).
(§2) The viability of cells was calculated as % of control.
(§3) FIG. 17: Induction of apoptosis and in vitro cytotoxicity by VTD in a human cancer cell line with different statuses of p53 and mot-2. (A-D) Cells were treated with VTD for 24, 48, and 72 hours. After incubation, dead cells were washed off, and the remaining attached cells were calculated by counting in five random fields using the Axiovert 200 M inverted microscope and AxioVision software (cell detachment assay). The % of cells attached was calculated as % of control cells. […] The data is shown as mean+SEM of three independent experiments (n=3, *p<0.05). (E-K) Cells were plated for 5 days, and the colonies of cells were treated with different concentration of VTD. The colonies of viable cells were stained with crystal violet dye and absorbance, as an index of measurement of colony forming units, was read at 562 nm (clonogenic survival assay). VTD induced a significant decrease in cell viability in a p53- and differentiation grade manner in HCT-116 poorly differentiated cells (E), HCT 116 p53+/−(F), HCT-116 p53−/− (G), LoVo well-differentiated cells (H), SW-480 (K), and two non-colon cancer cells: HepG2 (I) and U2OS (J). The data is shown as mean+SEM of three independent experiments (n=3, *p<0.05). (L) Determination of endogenous levels of mot-2, UBXN2A, HSC70, and p53 proteins in various cancer cell lines using WB. (M) HCT-116 cells were treated with VTD (10 and 30 μM) and cytoplasmic and nuclear fractions were subjected to WB. HSC70 and Orc-2 antibodies were used as cytoplasmic and nuclear markers, respectively.

[2] = test system: LoVo; assay: Cell detachment assay and live cell imaging; conditions: dose- and time-dependent
Description: as §1, §2, §3

[3] = test system: SW480; assay: Cell detachment assay and live cell imaging; conditions: mutant p53
Description: as §1, §2, §3

[4] = test system: U2OS; assay: Cell detachment assay and live cell imaging; conditions: dose- and time-dependent
Description: as §1, §2, §3

[5] = test system: HCT-116 p53+/− or p53 −/−; assay: Clonogenic survival assay; conditions: effective doses
Text: (§4) We next performed a clonogenic survival assay (S4E) to determine colony formation in cancer cells in the presence and absence of VTD. […] At the same time, we measured the mot-2, p53, and UBXN2A protein levels in all these cell lines. […] To verify whether VTD-induced cell death is mediated through the UBXN2A-mot-2-p53 axis, we looked at the expression of p53 in the cytoplasm and nucleus of HCT-116 cells following VTD treatment. […] Due to a high cell death in higher doses of VTD, we could not use WB analysis for reliable p53 and UBXN2A detection and quantification. Finally, we checked the effect of VTD on non-cancerous cell lines. We incubated human umbilical vein endothelial cells (HUVECs), which mimic non-cancerous endothelial cells next to tumor cells, with VTD (S4G). […] Due to the different levels of the stress condition, we observed more sensitivity to VTD in LoVo and U2OS cells versus HCT-116 cells. In addition, lack of similar response in normal cells due to the absence of stresses and cytoplasmic mot-2 further explains VTD is therefore a drug that selectively targets cancer cell.
as §2, §3

[6] = test system: HCT-116; assay: Clonogenic survival assay; conditions: in higher doses
Text: as §4, §2, §3

[7] = test system: HepG2; assay: Clonogenic survival assay; conditions: as low as 30 μM VTD
Text: as §4, §2, §3

[8] = test system: LoVo; assay: Clonogenic survival assay; conditions: as low as 30 μM VTD
Text: as §4, §2, §3

[9] = test system: SW480; assay: Clonogenic survival assay; conditions: mutant p53, even at higher doses
Text: as §4, §2, §3

[10] = test system: U2OS; assay: Clonogenic survival assay; conditions: as low as 30 μM VTD
Text: as §4, §2, §3

[11] = test system: UBXN2A silenced clones of HCT-116; assay: Viability (MTT) and cell death (Sytox red flow cytometry) of UBXN2A silenced cells
Description: We decided to confirm whether VTD-induced tumor suppression is indeed mediated via the UBXN2A-mot-2-p53 axis (FIG. 18H). After initial verification with WB (FIG. 18A), HCT-116 (p53+/+ and p53 −/−) and LoVo were treated with VTD for 24, 48, and 72 hours (FIG. 18B-D). […] We defined this phenomenon as a delayed cytotoxic response, since it occurs through UBXN2A transcription, as previously described for other anti-cancer agents. […] In the second set of experiments, we treated two stable UBXN2A silenced clones of HCT-116 along with controls with VTD. […] Staurosporine-treated cells were used as a positive control (S4F). […] Finally, to understand the contribution of mot-2 to the anti-cancer mechanism of VTD, we used a mot-2 inhibitor known as MKT-077 [7] along with VTD in well-differentiated SW-48 (WT-p53) colon cancer cells for 72 hours. Due to the critical role of mot-2 in the mitochondria, we could not use a silencing strategy for mot-2 in this set of experiments.
as §2
FIG. 18: Veratridine (VTD) functions via the UBXN2A-mot-2-p53 axis. (A) WB confirmed the presence and the absence of p53 protein in HCT-116 p53^(+/+) and HCT-116 p53^(−/−) cancer cell lines, respectively. […] (F) In another set of experiments, UBXN2A-silenced cells were treated with VTD (100, 200, and 300 μM) for 24 hours. […]

COc1ccc(C(=O)O[C@H]2CC[C@@]3(C)[C@@H]4CC[C@H]5[C@]6(O)C[C@H](O)[C@@]7(O)[C@@H](CN8C[C@@H](C)CC[C@H]8[C@@]7(C)O)[C@]6(O)C[C@@]53O[C@]24O)cc1OC [VTD, Veratridine]
cell detachment (% of cells attached) ([1]; 24, 48 and 72 hours): significantly increases cell detachment; also recorded: significantly decreases the % of cells attached
cell shrinking and rounding (live cell imaging) [1]: induces cell shrinking and rounding
cell detachment (% of cells attached) ([2]; 24, 48 and 72 hours): significantly increases cell detachment; also recorded: significantly decreases the % of cells attached
cell shrinking and rounding (live cell imaging) [2]: induces cell shrinking and rounding
cell detachment (% of cells attached) ([3]; 24, 48 and 72 hours): no effect on cell detachment; also recorded: not with mutant p53
cell shrinking and rounding (live cell imaging) [3]: remain unchanged
cell detachment (% of cells attached) ([4]; 24, 48 and 72 hours): significantly increases cell detachment; also recorded: significantly decreases the % of cells attached
cell shrinking and rounding (live cell imaging) [4]: induces cell shrinking and rounding
p53 dependence of anti-colony formation role [5]: partially p53 dependent
colony formation [6]: reduces colony formation
number of colonies [7]: significantly decreases the number of colonies
number of colonies [8]: significantly decreases the number of colonies
number of colonies [9]: no response
number of colonies [10]: significantly decreases the number of colonies
cell viability of UBXN2A silenced cells versus control cells upon VTD ([11]; MTT): greater cell viability than control cells; also recorded: significantly higher as compared to control cells
cell death (Sytox red) of UBXN2A silenced cells upon VTD ([11]; VTD 100, 200 and 300 μM, 24 hours): significant decrease in the cell death; also recorded: significantly decreases cell death
